According to patent US9969710B2, “Heteroaryl compounds as IRAK inhibitors and uses thereof” (Merck Patent GmbH, priority 2015, dated 2018):

Legend:
IRAK1 = molecular target: T1, IRAK1 (Homo sapiens, UniProt P51617); assay: IRAK1 enzymatic assay (ADP-Glo luminescence); type: biochemical; conditions: human recombinant His-TEV-IRAK1 (194-712), ATP 1 μM; read-out: IRAK 1 IC50
T1 construct: His-TEV-IRAK1 (194-712); His (N); TEV cleavage site (N)
Procedure: IRAK1 is a human purified recombinant enzyme (His-TEV-IRAK1 (194-712))
In this assay, IRAK1 hydrolyses ATP and autophosphorylates. Measurement of IRAK-1 inhibition is performed in 384-well format based on luminescence assay (ADP-Glo™ Kinase Assay from Promega). Purified human recombinant IRAK1 ([…]) and serial diluted compounds in DMSO (range of concentration from 10 μM to 0.5 nM) or controls (1% DMSO) are incubated for 15 minutes at RT in assay buffer containing 50 mM Hepes pH 7.0, Fatty acid-free BSA 0.1%, Dithiothreitol (DTT) 2 mM, MgCl2 10 mM, EGTA 0.5 mM, Triton X-100 0.01%. The kinase reaction is then initiated by the addition of ATP at a concentration of 1 μM. After 2 hours of incubation at RT, the reaction is stopped and the unconsumed ATP depleted by the addition of ADP-Glo™ Reagent according to supplier instructions. After 40 minutes of incubation at RT, the Kinase Detection Reagent is then added to the assay plate according to supplier instructions. After 20 minutes of incubation at RT, the luminescence signal is measured with a luminometer (PerkinElmer Envision or equivalent reader).

IRAK4 = molecular target: T2, IRAK4 (Homo sapiens, UniProt Q9NWZ3); assay: IRAK4 enzymatic assay (ADP-Glo luminescence); type: biochemical; conditions: human recombinant His-TEV-IRAK4 (1-460), STK1-biotin peptide substrate
T2 construct: His-TEV-IRAK4 (1-460); His (N); TEV cleavage site (N)
T2 sequence (Q9NWZ3 1-460): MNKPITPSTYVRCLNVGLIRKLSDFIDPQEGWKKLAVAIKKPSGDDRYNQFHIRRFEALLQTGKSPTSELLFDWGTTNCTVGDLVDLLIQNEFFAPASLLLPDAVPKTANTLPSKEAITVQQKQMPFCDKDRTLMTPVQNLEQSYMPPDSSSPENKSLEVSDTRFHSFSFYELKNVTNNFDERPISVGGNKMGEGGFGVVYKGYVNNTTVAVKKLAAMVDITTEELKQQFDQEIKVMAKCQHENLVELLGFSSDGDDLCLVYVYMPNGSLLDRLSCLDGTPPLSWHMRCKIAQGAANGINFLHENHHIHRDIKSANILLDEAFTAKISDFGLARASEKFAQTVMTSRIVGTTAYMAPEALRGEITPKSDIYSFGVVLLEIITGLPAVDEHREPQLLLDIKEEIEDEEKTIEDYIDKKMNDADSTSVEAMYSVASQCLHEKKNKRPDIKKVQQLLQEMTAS
Procedure: IRAK4 is a human purified recombinant enzyme (His-TEV-IRAK4 (1-460)).
In this assay, IRAK4 hydrolyses ATP, autophosphorylates and phosphorylates a Serine/Threonine generic peptidic substrate (STK: 61ST1BLC from CisBio International). Measurement of IRAK-4 inhibition is performed in 384-well format based on a luminescence assay (ADP-Glo™ Kinase Assay from Promega). Purified human recombinant IRAK4 ([…]) and serial diluted compounds in DMSO (range of concentration from 10 μM to 0.5 nM) or controls (1% DMSO) are incubated for 15 minutes at RT in assay buffer containing 50 mM Hepes pH 7.0, Fatty acid-free BSA 0.1%, Dithiothreitol (DTT) 2 mM, MgCl2 10 mM, EGTA 0.5 mM, Triton X-100 0.01%, MnCl2 5 mM. The kinase reaction is then initiated by the addition of ATP ([…]) and the peptidic substrate STK1-biotin peptide (300 nM). After 2 hours of incubation at RT, the reaction is stopped and the unconsumed ATP depleted by the addition of ADP-Glo™ Reagent according to supplier instructions. After 40 minutes of incubation at RT, the Kinase Detection Reagent is then added to the assay plate according to supplier instructions. After 20 minutes of incubation at RT, the luminescence signal is measured with a plate-reading luminometer (PerkinElmer Envision or equivalent reader).

[1] = tested on: TLR7 induced IL-6 secretion in human mononuclear cells (PBMC's); assay: TLR7 induced IL-6 in human PBMC's; type: cell-based; conditions: TLR7 specific ligand 2 uM overnight, IL-6 AlphaLISA
Procedure: TLR7 Induced IL-6 in Human PBMC's
Human PBMC assay was used as one of the functional assaya to monitor the activity of IRAK1 and IRAK4 small molecule inhibitors on TLR7 induced IL-6 secretion in human mononuclear cells (PBMC's). Human PBMCs were prepared from buffy coats (whole blood enriched with leukocytes and platelets) obtained from healthy volunteers used either fresh or frozen are plated in assay media (RPMI+2% P/S/L-glu+10% HI-FBS) and pre-treated with compounds in DMSO/media (range of concentrations from 25 uM to 0.4 nM) or controls (0.25% DMSO) for 30 minutes at 37° C. in assay media. Following pre-treatment with IRAK1 and IRAK4 inhibitors, PBMC's were stimulated with TLR7 specific ligand (2 uM) overnight (16-18 hrs) at 37° C. After incubation supernatant was transferred to 384 well PE AlphaPlate-384 (6005350) and IL-6 is quantified using Perkin Elmer IL-6 Alpha LISA kit (AL223C). Plates were read on an Envision® plate reader with Alpha Technology®.

T1 sequence (P51617 194-712): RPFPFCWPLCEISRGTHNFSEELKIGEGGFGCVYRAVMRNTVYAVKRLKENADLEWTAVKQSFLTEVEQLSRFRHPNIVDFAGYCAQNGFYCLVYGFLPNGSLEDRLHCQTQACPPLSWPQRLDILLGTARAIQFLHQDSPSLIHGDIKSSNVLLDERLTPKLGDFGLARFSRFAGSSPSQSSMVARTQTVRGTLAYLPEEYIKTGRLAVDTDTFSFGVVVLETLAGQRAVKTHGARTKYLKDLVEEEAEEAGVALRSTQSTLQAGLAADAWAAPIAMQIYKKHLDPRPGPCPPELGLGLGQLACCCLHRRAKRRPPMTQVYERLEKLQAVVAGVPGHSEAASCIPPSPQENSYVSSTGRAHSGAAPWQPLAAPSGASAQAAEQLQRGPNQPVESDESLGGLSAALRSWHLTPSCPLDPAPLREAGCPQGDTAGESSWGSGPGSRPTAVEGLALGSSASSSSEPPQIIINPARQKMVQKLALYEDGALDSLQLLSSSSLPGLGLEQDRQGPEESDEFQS

SMILES	IC50 (IRAK1)	IC50 (IRAK4)	IC50 ([1]; Homo sapiens, PBMC)	IC50 [1]
CN1CCC(C)(c2ccc3c(c2)nc(NC(=O)c2cccc(C(F)F)c2)n3CCCO)C1=O (single isomer, unassigned) [Compound 30a]	1000 to 10000 nM	≤ 100 nM	1000 to 10000 nM	
CN1C(=O)CCC1(C)c1ccc2c(c1)nc(NC(=O)c1cccc(C(F)F)c1)n2CCCO (single isomer, unassigned) [Compound 31a]	100 to 1000 nM	≤ 100 nM	1000 to 10000 nM	
CN1C(=O)CCC1(C)c1ccc2c(c1)nc(NC(=O)c1cccc(C(F)(F)F)c1)n2CCCO (single isomer, unassigned) [Compound 32a]	100 to 1000 nM	≤ 100 nM	1000 to 10000 nM	
CN1C(=O)CCC1(C)c1ccc2c(c1)nc(NC(=O)c1cccc(C(F)(F)F)c1)n2CCCO (single isomer, unassigned) [Compound 32b]	100 to 1000 nM	≤ 100 nM		1000 to 10000 nM
CN1CCCC(c2ccc3c(c2)[nH]/c(=N\C(=O)c2cccc(C(F)(F)F)c2)n3CCCO)C1=O (stereo not drawn) [Compound 1, (E)-N-(1-(3-hydroxypropyl)-5-(1-methyl-2-oxopiperidin-3-yl)-1H-benzo[d]imidazol-2(3H)-ylidene)-3-(trifluoromethyl)benzamide]	≤ 100 nM	≤ 100 nM	≤ 100 nM	
CN1CCC[C@@H](c2ccc3c(c2)[nH]/c(=N\C(=O)c2cccc(C(F)(F)F)c2)n3CCCO)C1=O [Compound 1a, (S,E)-N-(1-(3-hydroxypropyl)-5-(1-methyl-2-oxopiperidin-3-yl)-1H-benzo[d]imidazol-2(3H)-ylidene)-3-(trifluoromethyl)benzamide]	≤ 100 nM	≤ 100 nM	≤ 100 nM	
CN1CCC[C@H](c2ccc3c(c2)[nH]/c(=N\C(=O)c2cccc(C(F)(F)F)c2)n3CCCO)C1=O [Compound 1b, (R,E)-N-(1-(3-hydroxypropyl)-5-(1-methyl-2-oxopiperidin-3-yl)-1H-benzo[d]imidazol-2(3H)-ylidene)-3-(trifluoromethyl)benzamide]	100 to 1000 nM	≤ 100 nM	1000 to 10000 nM	
CN1CCCC(c2ccc3c(c2)[nH]/c(=N\C(=O)c2cccc(C(F)F)c2)n3C[C@@](C)(F)CO)C1=O (stereo partly drawn) [Compound 2b, (E)-3-(difluoromethyl)-N-(1-((R)-2-fluoro-3-hydroxy-2-methylpropyl)-5-(1-methyl-2-oxopiperidin-3-yl)-1H-benzo[d]imidazol-2(3H)-ylidene)benzamide]	100 to 1000 nM	≤ 100 nM	≤ 100 nM	
CN1CCC[C@H](c2ccc3c(c2)[nH]/c(=N\C(=O)c2cccc(C(F)F)c2)n3C[C@@](C)(F)CO)C1=O [Compound 3a, 3-(difluoromethyl)-N-[(2E)-1-[(2R)-2-fluoro-3-hydroxy-2-methylpropyl]-5-[(3R)-1-methyl-2-oxopiperidin-3-yl]-2,3-dihydro-1H-1,3-benzodiazol-2-ylidene]benzamide]	1000 to 10000 nM	≤ 100 nM	100 to 1000 nM	
CN1CCC[C@@H](c2ccc3c(c2)[nH]/c(=N\C(=O)c2cccc(C(F)F)c2)n3C[C@@](C)(F)CO)C1=O [Compound 3d, 3-(difluoromethyl)-N-[(2E)-1-[(2R)-2-fluoro-3-hydroxy-2-methylpropyl]-5-[(3S)-1-methyl-2-oxopiperidin-3-yl]-2,3-dihydro-1H-1,3-benzodiazol-2-ylidene]benzamide]	≤ 100 nM	≤ 100 nM	≤ 100 nM	
Cn1cncc(-c2ccc3c(c2)[nH]/c(=N\C(=O)c2cccc(C(F)(F)F)c2)n3CCCO)c1=O [Compound 5, (E)-N-(1-(3-hydroxypropyl)-5-(1-methyl-6-oxo-1,6-dihydropyrimidin-5-yl)-1H-benzo[d]imidazol-2(3H)-ylidene)-3-(trifluoromethyl)benzamide]	100 to 1000 nM	≤ 100 nM	100 to 1000 nM	
O=C(/N=c1\[nH]c2cc(C3CCCN(CC4CC4)C3=O)ccc2n1CCCO)c1cccc(C(F)(F)F)c1 (stereo not drawn) [Compound 7, (E)-N-(5-(1-(cyclopropylmethyl)-2-oxopiperidin-3-yl)-1-(3-hydroxypropyl)-1H-benzo[d]imidazol-2(3H)-ylidene)-3-(trifluoromethyl)benzamide]	100 to 1000 nM	≤ 100 nM	100 to 1000 nM	
CN1CC(c2ccc3c(c2)[nH]/c(=N\C(=O)c2cccc(C(F)(F)F)c2)n3CCCO)CC1=O (stereo not drawn) [Compound 10, (E)-N-(1-(3-hydroxypropyl)-5-(1-methyl-5-oxopyrrolidin-3-yl)-1H-benzo[d]imidazol-2(3H)-ylidene)-3-(trifluoromethyl)benzamide]	100 to 1000 nM	≤ 100 nM	100 to 1000 nM	
CC(=O)N1CCC(c2ccc3c(c2)[nH]/c(=N\C(=O)c2cccc(C(F)(F)F)c2)n3CCCO)C1 (stereo not drawn) [Compound 12, (E)-N-(5-(1-acetylpyrrolidin-3-yl)-1-(3-hydroxypropyl)-1H-benzo[d]imidazol-2(3H)-ylidene)-3-(trifluoromethyl)benzamide]	100 to 1000 nM	≤ 100 nM	100 to 1000 nM	
CC(=O)N1CCC(c2ccc3c(c2)[nH]/c(=N\C(=O)c2cccc(C(F)(F)F)c2)n3CCCO)CC1 [Compound 13, (E)-N-(5-(1-acetylpiperidin-4-yl)-1-(3-hydroxypropyl)-1H-benzo[d]imidazol-2(3H)-ylidene)-3-(trifluoromethyl)benzamide]	≤ 100 nM	≤ 100 nM	100 to 1000 nM	
CC(=O)N1CCCC(c2ccc3c(c2)[nH]/c(=N\C(=O)c2cccc(C(F)(F)F)c2)n3CCCO)C1 (stereo not drawn) [Compound 14, (E)-N-(5-(1-acetylpiperidin-3-yl)-1-(3-hydroxypropyl)-1H-benzo[d]imidazol-2(3H)-ylidene)-3-(trifluoromethyl)benzamide]	≤ 100 nM	≤ 100 nM	≤ 100 nM	
CC(=O)N1C2CCC1CC(c1ccc3c(c1)[nH]/c(=N\C(=O)c1cccc(C(F)(F)F)c1)n3CCCO)C2 (stereo not drawn) [Compound 15, (E)-N-(5-(8-acetyl-8-azabicyclo[3.2.1]octan-3-yl)-1-(3-hydroxypropyl)-1H-benzo[d]imidazol-2(3H)-ylidene)-3-(trifluoromethyl)benzamide]	≤ 100 nM	≤ 100 nM	≤ 100 nM	
CN1CCCC(c2ccc3c(c2)[nH]/c(=N\C(=O)c2cccc(C(F)(F)F)c2)n3C[C@](C)(F)CO)C1=O (stereo partly drawn) [Compound 16, (E)-N-(1-((S)-2-fluoro-3-hydroxy-2-methylpropyl)-5-(1-methyl-2-oxopiperidin-3-yl)-1H-benzo[d]imidazol-2(3H)-ylidene)-3-(trifluoromethyl)benzamide]	100 to 1000 nM	≤ 100 nM	100 to 1000 nM	
